In ChEMBL document CHEMBL1201862, “PubChem BioAssay data set” (2004):
Calls of active or inactive are those of the source.

Key:
Escherichia coli [1] = experiment: microbe, parasite or virus in culture
Escherichia coli [2] = experiment: microbe, parasite or virus in culture; remark: listed apart in the source
BJ [3] = experiment: cells; format: functional, cell-based; conditions: Homo sapiens
[4] = cytotoxicity toward DRD oncogenic fibroblasts, dose response, cell-based, non-viral oncogenic, luminescence (AID 1934); format: functional; conditions: Homo sapiens
BJ [5] = experiment: cytotoxicity toward BJ-TERT fibroblasts, dose response, cell-based, RAS-independent, luminescence (AID 1933); format: functional; conditions: Homo sapiens
[6] = molecular target: T1, Rac GTPase-activating protein 1 (Homo sapiens, UniProt Q9H0H5); experiment: MgcRacGAP GTPase-activating activity inhibitors, confirmation, biochemical, ADP Hunter fluorescence, primary and confirmatory (AID 624330); format: functional
T1 sequence (Q9H0H5 whole entry): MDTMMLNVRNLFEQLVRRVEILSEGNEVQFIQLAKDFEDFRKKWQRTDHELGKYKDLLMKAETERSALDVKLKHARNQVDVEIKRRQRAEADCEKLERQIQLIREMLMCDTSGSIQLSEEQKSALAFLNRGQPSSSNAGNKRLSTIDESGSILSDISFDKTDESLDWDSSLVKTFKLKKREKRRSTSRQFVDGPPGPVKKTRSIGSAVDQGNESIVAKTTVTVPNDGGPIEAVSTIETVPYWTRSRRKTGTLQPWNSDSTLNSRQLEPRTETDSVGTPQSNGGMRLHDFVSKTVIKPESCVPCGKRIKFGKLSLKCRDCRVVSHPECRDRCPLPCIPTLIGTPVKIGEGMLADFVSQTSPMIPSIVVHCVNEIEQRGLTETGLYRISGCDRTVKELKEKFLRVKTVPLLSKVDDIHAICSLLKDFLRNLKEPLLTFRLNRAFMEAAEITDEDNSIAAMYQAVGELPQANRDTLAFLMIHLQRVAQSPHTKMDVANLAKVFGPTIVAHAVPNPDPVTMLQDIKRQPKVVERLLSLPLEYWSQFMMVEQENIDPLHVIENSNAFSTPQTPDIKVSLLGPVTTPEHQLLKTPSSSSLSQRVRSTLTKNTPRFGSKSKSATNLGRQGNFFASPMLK

[7] = tested on: Streptococcus sp. 'group A'; experiment: growth inhibition of control SK(-) GAS strain, dose response, counter-screen for streptokinase expression inhibitor project, luminescence, kanamycin, BacTiterGlo, confirmation (AID 1900); format: functional, organism-based; conditions: Streptococcus sp. 'group A'
Streptokinase A = molecular target: T2, Streptokinase A (Streptococcus pyogenes serotype M1, UniProt P10520); experiment: S. pyogenes streptokinase expression inhibitors, potency, dose response, plasminogen activation absorbance, OD405 (AID 1914); format: functional, Streptococcus pyogenes M1 GAS;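 further: secreted streptokinase activity via plasminogen activation per viability signal from cell pellet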
T2 sequence (P10520 whole entry): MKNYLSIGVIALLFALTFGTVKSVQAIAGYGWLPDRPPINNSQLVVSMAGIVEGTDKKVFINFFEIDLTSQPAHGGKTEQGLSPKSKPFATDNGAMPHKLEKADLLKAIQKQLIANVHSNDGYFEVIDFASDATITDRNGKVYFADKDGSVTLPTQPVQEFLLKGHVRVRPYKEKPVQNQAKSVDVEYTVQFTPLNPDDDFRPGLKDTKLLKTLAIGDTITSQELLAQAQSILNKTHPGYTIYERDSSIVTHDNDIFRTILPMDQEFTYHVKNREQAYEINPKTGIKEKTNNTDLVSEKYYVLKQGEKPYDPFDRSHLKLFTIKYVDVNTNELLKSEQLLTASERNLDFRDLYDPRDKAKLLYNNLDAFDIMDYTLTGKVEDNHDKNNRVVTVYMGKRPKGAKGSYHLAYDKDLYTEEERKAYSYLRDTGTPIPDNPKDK

[8] = molecular target: T3, Small ubiquitin-related modifier 1 (Homo sapiens, UniProt P63165); experiment: inhibitors of SUMO1 peptide binding, dose response, biochemical, fluorescence polarization, uHTS hits (AID 624382); format: functional; conditions: read-out: IC50_Mean
T3 sequence (P63165 whole entry): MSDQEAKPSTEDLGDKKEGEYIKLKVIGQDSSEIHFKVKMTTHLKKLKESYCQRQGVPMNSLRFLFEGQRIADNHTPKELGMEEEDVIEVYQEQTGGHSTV

BJ [9] = experiment: cytotoxicity toward BJ-TERT-LT-ST fibroblasts, dose response, cell-based, RAS-independent, luminescence (AID 1935); format: functional; conditions: Homo sapiens;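 further: BJ fibroblasts immortalized with TERT plus LT and ST oncogenes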
Streptococcus = experiment: Group A Streptococcus viability loss, dose response, counter-screen for streptokinase expression inhibitor project, luminescence, BacTiterGlo (AID 1915); format: functional, organism-based; conditions: Streptococcus;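 further: potency for reduction of bacterial viability or growth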
[10] = molecular target: T4, DNA repair protein RAD52 homolog (Homo sapiens, UniProt P43351); format: functional, biochemical
T4 sequence (P43351 whole entry): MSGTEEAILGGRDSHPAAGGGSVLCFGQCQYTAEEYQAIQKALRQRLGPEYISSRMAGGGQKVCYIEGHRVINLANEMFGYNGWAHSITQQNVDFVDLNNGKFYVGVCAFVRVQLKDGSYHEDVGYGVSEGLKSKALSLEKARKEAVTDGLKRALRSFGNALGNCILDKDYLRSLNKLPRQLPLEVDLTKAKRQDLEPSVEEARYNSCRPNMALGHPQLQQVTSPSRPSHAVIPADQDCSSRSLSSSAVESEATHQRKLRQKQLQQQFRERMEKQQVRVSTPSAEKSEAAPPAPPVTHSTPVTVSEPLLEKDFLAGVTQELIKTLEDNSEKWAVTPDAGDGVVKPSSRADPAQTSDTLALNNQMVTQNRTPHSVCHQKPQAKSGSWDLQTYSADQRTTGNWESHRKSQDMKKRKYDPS

[11] = molecular target: T3, Small ubiquitin-related modifier 1; experiment: inhibitors of SUMO1 partner interactions, dose response, biochemical, FRET (AID 624383); format: functional; conditions: read-out: IC50_Mean
[12] = molecular target: T5, Mannose-6-phosphate isomerase (Homo sapiens, UniProt P34949); experiment: inhibitors of human PMI, primary screen, biochemical, fluorescence intensity, coupled assay (AID 1209)
T5 sequence (P34949 whole entry): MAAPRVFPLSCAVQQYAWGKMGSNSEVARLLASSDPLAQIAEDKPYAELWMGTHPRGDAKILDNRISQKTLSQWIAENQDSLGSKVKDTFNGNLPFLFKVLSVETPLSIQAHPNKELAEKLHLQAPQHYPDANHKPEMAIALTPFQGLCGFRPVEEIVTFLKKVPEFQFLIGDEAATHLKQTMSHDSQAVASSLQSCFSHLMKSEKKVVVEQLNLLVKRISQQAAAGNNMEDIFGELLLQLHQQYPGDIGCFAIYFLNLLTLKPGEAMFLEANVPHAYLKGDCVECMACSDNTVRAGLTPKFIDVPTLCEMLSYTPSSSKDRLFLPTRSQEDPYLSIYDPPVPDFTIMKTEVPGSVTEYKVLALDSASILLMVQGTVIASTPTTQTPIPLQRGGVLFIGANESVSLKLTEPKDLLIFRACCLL

[13] = molecular target: T6, Carboxy-terminal domain RNA polymerase II polypeptide A small phosphatase 1 (Homo sapiens, UniProt Q9GZU7); experiment: inhibitors of CTDSP1, concentration-response testing, biochemical assay, absorbance-based, actives from ultra-high-throughput screening (AID 540297); format: functional
T6 sequence (Q9GZU7 whole entry): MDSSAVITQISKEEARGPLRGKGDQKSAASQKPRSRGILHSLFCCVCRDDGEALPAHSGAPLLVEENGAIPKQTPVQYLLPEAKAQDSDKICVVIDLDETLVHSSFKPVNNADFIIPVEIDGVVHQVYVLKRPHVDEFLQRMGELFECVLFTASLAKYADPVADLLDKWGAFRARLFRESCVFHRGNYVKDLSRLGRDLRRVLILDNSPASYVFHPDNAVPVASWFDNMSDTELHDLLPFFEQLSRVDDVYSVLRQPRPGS

[14] = molecular target: DNA dC->dU-editing enzyme APOBEC-3G (Homo sapiens, UniProt Q9HC16); format: functional;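 further: Dose-response counterscreen measuring inhibition of APOBEC3G DNA deaminase activity, run while confirming APOBEC3A inhibitors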
Chain of DNA dC->dU-editing enzyme APOBEC-3G (Q9HC16 whole entry): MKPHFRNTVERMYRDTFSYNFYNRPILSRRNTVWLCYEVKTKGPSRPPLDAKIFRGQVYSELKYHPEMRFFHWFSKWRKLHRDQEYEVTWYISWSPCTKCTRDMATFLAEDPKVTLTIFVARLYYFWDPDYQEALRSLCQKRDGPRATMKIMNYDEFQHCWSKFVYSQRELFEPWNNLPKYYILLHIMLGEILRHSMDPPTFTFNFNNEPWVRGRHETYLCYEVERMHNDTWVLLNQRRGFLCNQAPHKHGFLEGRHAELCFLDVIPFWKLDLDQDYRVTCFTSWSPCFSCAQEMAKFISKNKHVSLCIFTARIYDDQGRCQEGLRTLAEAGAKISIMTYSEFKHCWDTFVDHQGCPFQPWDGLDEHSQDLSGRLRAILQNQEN

Phosphomannomutase 2 = molecular target: T7, Phosphomannomutase 2 (Homo sapiens, UniProt O15305); experiment: Counter screen SAR assay for PMM2 inhibitors via a fluorescence intensity assay. [Related pubchem assays (depositor defined):AID1545, AID1574]
T7 sequence (O15305 whole entry): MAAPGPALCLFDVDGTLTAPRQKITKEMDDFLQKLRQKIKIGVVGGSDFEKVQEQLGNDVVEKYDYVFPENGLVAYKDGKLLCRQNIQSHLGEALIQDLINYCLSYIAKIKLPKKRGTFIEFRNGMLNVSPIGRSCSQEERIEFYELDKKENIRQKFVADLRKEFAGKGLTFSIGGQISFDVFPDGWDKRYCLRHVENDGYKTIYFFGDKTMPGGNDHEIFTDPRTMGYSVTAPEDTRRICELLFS

[15] = molecular target: T5, Mannose-6-phosphate isomerase; experiment: PMI enzyme inhibitors, confirmation, biochemical, fluorescence intensity (AID 1535)
[16] = molecular target: Induced myeloid leukemia cell differentiation protein Mcl-1 (Homo sapiens, UniProt Q07820); format: functional
Chain of Induced myeloid leukemia cell differentiation protein Mcl-1 (Q07820 whole entry): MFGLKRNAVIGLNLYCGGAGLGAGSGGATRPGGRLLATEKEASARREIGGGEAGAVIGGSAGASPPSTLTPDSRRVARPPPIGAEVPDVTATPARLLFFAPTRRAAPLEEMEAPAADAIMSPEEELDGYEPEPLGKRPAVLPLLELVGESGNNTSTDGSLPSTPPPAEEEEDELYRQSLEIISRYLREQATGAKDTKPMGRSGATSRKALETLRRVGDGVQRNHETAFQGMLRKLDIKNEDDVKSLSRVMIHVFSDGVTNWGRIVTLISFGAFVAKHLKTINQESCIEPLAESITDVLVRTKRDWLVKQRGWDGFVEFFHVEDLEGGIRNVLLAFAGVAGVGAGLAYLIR

[17] = molecular target: DNA dC->dU-editing enzyme APOBEC-3A (Homo sapiens, UniProt P31941); experiment: Dose Response confirmation of small molecule APOBEC3A DNA Deaminase Inhibitors via a fluorescence-based single-stranded DNA deaminase assay. [Related pubchem assays (depositor defined):AID493011, AID493024]; format: functional
Chain of DNA dC->dU-editing enzyme APOBEC-3A (P31941 whole entry): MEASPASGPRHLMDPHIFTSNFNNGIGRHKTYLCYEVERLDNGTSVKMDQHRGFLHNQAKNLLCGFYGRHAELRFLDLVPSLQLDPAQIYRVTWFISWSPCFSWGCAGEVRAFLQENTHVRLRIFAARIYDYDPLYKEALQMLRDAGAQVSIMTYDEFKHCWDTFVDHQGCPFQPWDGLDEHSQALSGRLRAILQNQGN

Genome polyprotein = Genome polyprotein (dengue virus type 2, UniProt P29990); experiment: Dengue-2 NS5 methyltransferase inhibitors, primary screen, biochemical, confirmation dose response (AID 588689); format: functional
Chain of Genome polyprotein (P29990 2492-3391 limits assumed): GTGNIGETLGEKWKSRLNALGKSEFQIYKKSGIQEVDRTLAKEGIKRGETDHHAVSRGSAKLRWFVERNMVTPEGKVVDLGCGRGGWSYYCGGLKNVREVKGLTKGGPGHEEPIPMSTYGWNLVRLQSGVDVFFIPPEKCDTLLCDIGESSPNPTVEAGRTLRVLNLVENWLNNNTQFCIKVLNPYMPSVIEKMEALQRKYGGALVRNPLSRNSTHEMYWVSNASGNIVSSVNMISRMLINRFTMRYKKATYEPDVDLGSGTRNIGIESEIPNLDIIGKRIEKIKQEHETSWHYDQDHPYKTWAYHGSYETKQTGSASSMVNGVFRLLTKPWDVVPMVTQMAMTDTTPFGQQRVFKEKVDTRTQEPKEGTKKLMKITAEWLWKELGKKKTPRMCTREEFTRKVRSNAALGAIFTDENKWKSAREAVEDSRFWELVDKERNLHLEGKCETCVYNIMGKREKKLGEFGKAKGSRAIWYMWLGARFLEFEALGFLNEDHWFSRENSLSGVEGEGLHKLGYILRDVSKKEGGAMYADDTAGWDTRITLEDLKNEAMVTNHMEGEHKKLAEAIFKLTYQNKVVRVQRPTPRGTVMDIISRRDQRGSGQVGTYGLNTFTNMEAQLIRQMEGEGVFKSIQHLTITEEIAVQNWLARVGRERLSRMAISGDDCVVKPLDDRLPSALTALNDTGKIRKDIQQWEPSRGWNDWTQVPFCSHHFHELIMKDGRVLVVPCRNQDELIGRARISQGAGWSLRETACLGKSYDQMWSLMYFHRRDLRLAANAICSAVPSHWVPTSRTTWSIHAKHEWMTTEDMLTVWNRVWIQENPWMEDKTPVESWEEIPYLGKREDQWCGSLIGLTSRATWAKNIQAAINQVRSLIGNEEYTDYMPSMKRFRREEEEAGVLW

[18] = growth suppression of PTEN-null colon cells, dose response, cell-based, HCT116 PTEN knockout (AID 1047); format: functional;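 further: HCT116 colon tumor cells with PTEN knocked out; cells exposed to compound for 60 hours before readout; potency for loss of cell viability measured by luminescence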
[19] = growth suppression of beta-catenin-knockout colon cells, dose response, cell-based, HCT116, human colon tumor (AID 1045); format: functional;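 further: HCT116 colon tumor cells with beta catenin knocked out; cells exposed to compound for 60 hours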
A-375 = experiment: MITF: Counter assay: A375 proliferation Measured in Cell-Based System Using Plate Reader - 2084-03_Inhibitor_Dose_DryPowder_Activity. [Related pubchem assays (depositor defined):AID488944]; format: functional; conditions: Homo sapiens
[20] = molecular target: T8, Microphthalmia-associated transcription factor (Homo sapiens, UniProt O75030); experiment: TRPM1 promoter luciferase signal decrease, dose response, MITF inhibitor project, cell-based, SK-MEL-5, cherry-picked, set 3 (AID 493073); format: functional
T8 sequence (O75030 whole entry): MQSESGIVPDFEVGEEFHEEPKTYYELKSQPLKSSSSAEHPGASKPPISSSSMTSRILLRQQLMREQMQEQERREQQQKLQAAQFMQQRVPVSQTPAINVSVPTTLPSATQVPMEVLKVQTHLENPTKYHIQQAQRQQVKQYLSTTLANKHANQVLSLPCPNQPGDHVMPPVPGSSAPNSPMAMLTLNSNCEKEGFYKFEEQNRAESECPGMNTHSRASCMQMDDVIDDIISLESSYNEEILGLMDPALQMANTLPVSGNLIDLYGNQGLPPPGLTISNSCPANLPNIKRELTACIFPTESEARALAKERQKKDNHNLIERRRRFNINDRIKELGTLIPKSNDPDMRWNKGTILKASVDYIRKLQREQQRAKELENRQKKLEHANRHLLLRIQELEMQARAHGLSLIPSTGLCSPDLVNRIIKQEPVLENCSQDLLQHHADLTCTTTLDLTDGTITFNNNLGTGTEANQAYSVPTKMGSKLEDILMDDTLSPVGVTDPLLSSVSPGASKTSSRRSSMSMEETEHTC

Cytochrome P450 2D6 = Cytochrome P450 2D6 (Homo sapiens, UniProt P10635);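 further: CYP2D6 member of a cytochrome P450 panel assay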
Chain of Cytochrome P450 2D6 (P10635 whole entry): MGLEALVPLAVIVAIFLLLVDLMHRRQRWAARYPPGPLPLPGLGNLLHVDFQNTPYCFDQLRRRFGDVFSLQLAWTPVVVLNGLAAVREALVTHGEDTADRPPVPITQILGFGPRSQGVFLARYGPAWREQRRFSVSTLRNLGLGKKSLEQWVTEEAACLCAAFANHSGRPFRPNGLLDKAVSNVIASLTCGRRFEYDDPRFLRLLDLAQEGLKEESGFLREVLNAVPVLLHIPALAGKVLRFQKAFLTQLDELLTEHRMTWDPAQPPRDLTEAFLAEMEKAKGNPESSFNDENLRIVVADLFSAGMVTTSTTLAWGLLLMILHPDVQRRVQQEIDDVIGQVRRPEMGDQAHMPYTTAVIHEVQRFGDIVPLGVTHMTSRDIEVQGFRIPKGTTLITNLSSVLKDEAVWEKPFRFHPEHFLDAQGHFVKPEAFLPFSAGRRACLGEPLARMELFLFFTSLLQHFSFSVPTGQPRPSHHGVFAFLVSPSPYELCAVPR

CCc1ccc2c(c1)cc(CN(Cc1ccco1)C(C)=O)c1nnnn12
active: AC50 (Escherichia coli [1]) 24.6 µM | AC50 (Escherichia coli [2]) 98.8 µM

Cn1ccc(=Nc2ccc(NC(=O)c3ccc(/N=c4\ccn(C)c5ccc([N+](=O)[O-])cc45)cc3)cc2)cc1
inactive: IC50 [8] > 66.6 µM
inconclusive: EC50 (BJ [3]) 18 µM | EC50 (Streptokinase A) 28 µM | EC50 (BJ [9]) > 150 µM
active: EC50 [4] 17.1 µM | EC50 (BJ [5]) 15.3 µM | IC50 [6] 35.5 µM | EC50 [7] 0.976 µM | AC50 (Escherichia coli [2]) 12 µM | EC50 (Streptococcus) 2.47 µM | AC50 [10] 1.28 µM | IC50 [11] 13.1 µM

O=C(O)CCn1cc(C=C2C(=O)NC(=S)NC2=O)c(-c2cccc(Br)c2)n1
active: IC50 [12] 11.7 µM | IC50 [13] 4.47 µM | IC50 [14] 29.3 µM | IC50 [15] 9.83 µM | IC50 [6] 89.9 µM | IC50 [16] 2.39 µM | IC50 [17] 15.8 µM | IC50 (Genome polyprotein) 6.04 µM
inactive: IC50 (Phosphomannomutase 2) > 100 µM

O=C(N/N=C/c1cc([N+](=O)[O-])ccc1N1CCNCC1)c1ccc([N+](=O)[O-])cc1
inconclusive: AC50 (Cytochrome P450 2D6) 25.1 µM
active: EC50 [18] 11.1 µM | EC50 [19] 12.1 µM | AC50 (A-375) 24.1 µM | AC50 [20] 8.19 µM
